Results on 14 molecules are retold here after US20240209022A1, “NOVEL PEPTIDE HAVING ANTI-INFLAMMATORY AND TISSUE REGENERATIVE ACTIONS” (KOREA RESEARCH INSTITUTE OF BIOSCIENCE AND BIOTECHNOLOGY, priority 2020, published 2024).

Test [1] has as its system gastritis/gastric ulcer model. Briefly: HCl/ethanol gastritis/gastric ulcer model. It is filed as in vivo, C57BL/6J mice. To be noted: vs PBS buffer group; for degree of gastric mucosal damage (score): oral, 1 hour after HCl/ethanol. How it is done:
For a gastritis/gastric ulcer model, 7-week-old male C57BL/6J mice were used, and from 3 days before induction, the peptides of the present invention were dissolved in PBS buffer and then orally administered to the mice by 150 μL per animal at the same time once a day. Amuc_1409 or PEP001, PEP002, PEP003, PEP004, or PEP005 was dissolved in PBS buffer at a concentration of 6.7 μM, and novel tetrapeptides PEP006, PEP007, PEP008, PEP009, and PEP010 and novel tripeptides PEP011, PEP012, and PEP013 were each dissolved in PBS buffer at a concentration of 0.15 μg/150 μL (PEP006) or 0.2 μg/150 μL (PEP007, PEP008, PEP009, PEP010, PEP011, PEP012, and PEP013). For the induction of acute gastritis/gastric ulcer, 0.3 M HCl/60% ethanol was orally administered to the mice by 0.2 mL for each, the tissue was harvested after 1 hour, photographs of the inner surface of the stomach were taken, and the degree of damage to the stomach was compared. Measurements of gastritis/gastric ulcer indexes were converted into scores according to the degree of mucosal damage. A score of 0 was given if there was no damage, a score of 1 was given to an insignificant circle-shaped hemorrhagic corrosion site of less than 5 mm, a score of 2 was given to a hemorrhagic corrosion site with a length more than 5 mm, and a score of 3 was given to one or more hemorrhagic corrosion sites corresponding to the score of 2, a score of 4 was given to a hemorrhagic corrosion of more than 5 mm in length and less than 2 mm in width, a score of 5 was given to 2 to 3 hemorrhagic corrosions corresponding to the score of 4, a score of 6 was given to 4 to 5 hemorrhagic corrosions corresponding to the score of 4, a score of 7 was given to 6 or more hemorrhagic corrosions corresponding to the score of 4, and a score of 8 was given if there was hemorrhagic corrosion throughout the gastric mucosa. In order to confirm additional anti-inflammatory activity of the administered peptides, mRNA expression of inflammation-related genes, Tnfα, Il-1β, iNos, Cox2, and Il-10, in the gastric mucosal tissue was examined.

Test [2] has as its system ConA-induced acute hepatitis model. Briefly: ConA-induced acute hepatitis model. In kind it is in vivo, C57BL/6J mice. The note with it: vs PBS buffer group; for ALT / AST: plasma, 9 hours after ConA. How it is done: An acute hepatitis model was induced by dissolving ConA (concanavalin A) in PBS buffer (phosphate buffered saline) at 1.5 mg/mL and injecting the solution into 8-week-old specific pathogen free (SPF) male C57BL/6J mice through the tail vein in proportion to the mouse body weight based on 100 μL/10 g. Amuc_1409 or PEP001, PEP002, PEP003, PEP004, or PEP005 was dissolved in PBS buffer at a concentration of 6.7 μM from 3 days before ConA administration, and PEP007, PEP008, PEP009, or PEP010 was dissolved in PBS buffer at a concentration of 0.2 μg/150 μL from 3 days before ConA administration, and Amuc_1409 was injected into the mouse peritoneal cavity once a day at the same time by 210 μL and PEP001 to PEP010 by 150 μL, and intraperitoneally injected additionally one time 30 minutes before ConA injection, and the experiment was terminated 9 hours after ConA intravenous injection. Into the control group, PBS buffer was intravenously injected in the same manner. At the end of the experiment 9 hours after ConA intravenous injection, blood was collected from the orbital venous plexus using a heparin-treated capillary tube, and the collected blood was immediately centrifuged at 10,000 rpm (4° C.) for 10 minutes to separate plasma and then subjected to the analysis of alanine aminotransferase (ALT) and aspartate aminotransferase (AST), which are indicators of liver damage, using an automatic blood biochemical analyzer (Beckman Coulter AU480 automatic analyzer, Beckman Coulter). The liver was harvested, a part of the liver was fixed in 10% NBF at room temperature for 24 hours or more and then embedded in paraffin to prepare a 5 μm-thick section, and the section was stained with hematoxylin and eosin (H&E).

The test system of test [3] is small intestine organoid. Briefly: Small intestine organoid sprouting. It is filed as cell-based, C57BL/6J mice. The note with it: 16 nM on days 0, 2, 4; day 5 of culture; vs PBS buffer. How it is done:
In order to establish a small intestine organoid model, the small intestine of 15-week-old male C57BL/6J mice was cut longitudinally from the proximal end to the distal end, and cut transversely into about 5 mm long pieces. The small intestine tissue thus obtained was washed with refrigerated PBS containing 1% penicillin. Thereafter, the washed small intestine tissue was treated with dissociation buffer and filtered through a cell strainer to isolate crypts. The isolated crypt was cultured in Matrigel and Organoid Growth Medium (Intesticult™) mixed at a ratio of 1:1, Matrigel was solidified at 37° C. for 20 minutes in a 12 well plate, and then medium (500 μL/well) was added. The medium was replaced after 4 days, and subculture was performed on day 7.
For novel peptide screening, organoids 3D cultured in medium and Matrigel support were dispensed into 3 wells per group using a 12-well plate and 50 organoids per well. On days 0, 2, and 4 of culture, the organoids were treated with novel tetrapeptides PEP006, PEP007, PEP008, PEP009, and PEP010 and novel tripeptides PEP011, PEP012, and PEP013 at a concentration of 16 nM as described above, and the number of lobes of sprouted organoids on day 5 of culture was examined and analyzed for comparison. The control group was treated with PBS buffer in the same manner.

With GAY [PEP005], in test [1] (RT-qPCR), the “Cox2 expression in gastric mucosal tissue” value (“Cox2 expression” for short) was “significantly decreased”, the “Il-1p expression in gastric mucosal tissue” value (from here on “Il-1p expression”) is recorded as “significantly decreased”, the “Tnfα mRNA expression in gastric mucosal tissue” value (shortened to “Tnfα mRNA expression”) is “significantly decreased” and the “iNos mRNA expression in gastric mucosal tissue” value (“iNos mRNA expression” for short) is “significantly decreased”. In addition, in test [1], the “degree of gastric mucosal damage (score)” value was “significantly decreased”. Moreover, in test [2], the ALT result is listed as “decreased close to a significant level” and the AST entry is listed as “tended to decrease”.
Turning to AVS (AVSSIKGAY) [PEP004], in test [1] (RT-qPCR), the “Cox2 expression” value is given as “significantly decreased”, the “Il-1p expression” value is listed as “significantly decreased”, the “Tnfα mRNA expression” value is on record as “significantly decreased” and the “iNos mRNA expression” value is “significantly decreased”. The “degree of gastric mucosal damage (score)” value in test [1] is “significantly decreased”. In test [2], the ALT entry is given as “significantly decreased” and the AST result was “tended to decrease”.
Turning to AGAY (PEP006), the “degree of gastric mucosal damage (score)” value in test [1] is reported as “significantly decreased”. Moreover, the “number of lobes of sprouted organoids” value in test [3] is “significantly increased”.
For VGAY (PEP010), the “degree of gastric mucosal damage (score)” value in test [1] is given as “significantly decreased”. Further, in test [2], the ALT entry was “significantly decreased” and the AST entry is reported as “decreased close to a significant level”. In test [3], the “number of lobes of sprouted organoids” value is “significantly increased”.
As for AVSSIKGAY (PEP001), in test [1] (RT-qPCR), the “Cox2 expression” value is “significantly decreased”, the “Il-1p expression” value is “significantly decreased”, the “Tnfα mRNA expression” value was “significantly decreased” and the “iNos mRNA expression” value was “significantly decreased”. For the same molecule, in test [1], the “degree of gastric mucosal damage (score)” value is on record as “significantly decreased”. Moreover, in test [2], the ALT result is recorded as “decreased close to a significant level” and the AST entry is listed as “decreased close to a significant level”.
As to RGAY (PEP007), the “degree of gastric mucosal damage (score)” value in test [1] is “decreased to a significant level”. In addition, in test [2], the ALT result is “significantly decreased” and the AST result is listed as “tended to decrease”. Besides, the “number of lobes of sprouted organoids” value in test [3] is listed as “significantly increased”.
In the case of AGS [PEP012], the “degree of gastric mucosal damage (score)” value in test [1] was “significantly decreased”. Further, in test [3], the “number of lobes of sprouted organoids” value was “significantly increased”.
Turning to AVSSI (PEP002), in test [1] (RT-qPCR), the “Cox2 expression” value was “significantly decreased”, the “Il-1p expression” value is reported as “significantly decreased”, the “Tnfα mRNA expression” value is “significantly decreased” and the “iNos mRNA expression” value is “significantly decreased”. The “degree of gastric mucosal damage (score)” value in test [1] is “significantly decreased”. For the same molecule, in test [2], the ALT result is reported as “significantly decreased” and the AST entry is on record as “tended to decrease”.
On to KGAY (PEP003), for which, in test [1] (RT-qPCR), the “Cox2 expression” value is recorded as “significantly decreased”, the “Il-1p expression” value is “significantly decreased”, the “Tnfα mRNA expression” value is given as “significantly decreased” and the “iNos mRNA expression” value was “significantly decreased”. Further, the “degree of gastric mucosal damage (score)” value in test [1] was “significantly decreased”. Further, in test [2], the ALT result is recorded as “significantly decreased” and the AST result is given as “tended to decrease”.
AIS [PEP013]: in test [1], the “degree of gastric mucosal damage (score)” value was “significantly decreased”. Besides, the “number of lobes of sprouted organoids” value in test [3] was “significantly increased”.
Consider SGAY (PEP009), for which the “degree of gastric mucosal damage (score)” value in test [1] is “decreased to a significant level”. Besides, in test [2], the ALT result is given as “tended to decrease” and the AST result was “tended to decrease”. The “number of lobes of sprouted organoids” value in test [3] is listed as “significantly increased”.
As to IGAY (PEP008), the “degree of gastric mucosal damage (score)” value in test [1] is listed as “decreased to a significant level”. Besides, in test [2], the ALT result is listed as “tended to decrease”. The “number of lobes of sprouted organoids” value in test [3] is given as “significantly increased”.
On to AQS [PEP011], for which the “degree of gastric mucosal damage (score)” value in test [1] is on record as “significantly decreased”. In addition, the “number of lobes of sprouted organoids” value in test [3] is “significantly increased”.

B1: Amuc_1409: SEQ ID NO: 15, functional fragment obtained by eliminating the leader sequence from SEQ ID NO: 14; protein derived from Akkermansia muciniphila (protein)
chain: IPESSVPAAAVSSIKGAYPNAGPIEWDSEMHGMERIYEAEFRINGFQFDVKIAPDGKIVRIKEEIAASSLPEAVRASVLKRYPGCRIKEAEKITEGELVRYKVEVADSRDDYDVLIAPDGNILHVDR
modifications: Amuc_1409_fragment
notes: protein derived from Akkermansia muciniphila
On to B1, for which, in test [1] (RT-qPCR), the “Il-10 mRNA expression in gastric mucosal tissue” value is “increased”, the “Tnfα mRNA expression” value is “significantly decreased” and the “iNos mRNA expression” value is “significantly decreased”. Further, the “degree of gastric mucosal damage (score)” value in test [1] is listed as “significantly decreased”. Moreover, in test [2], the ALT entry is reported as “significantly decreased”; the AST result is reported as “significantly decreased”; the “inflammatory cells infiltration into the liver and necrosis in the liver parenchyma (H&E)” value is on record as “markedly reduced”.
